The text below walks through data of paper PMC3124589 (Biochimica et biophysica acta, 2011).

Entries after “also recorded” stand apart in the source; their conditions may differ. Where two headings read alike, the source gives them in different places.

Test [1] addresses T1, mtDAPDC (Mycobacterium tuberculosis, UniProt P9WIU7). Put plainly: HPLC assay for reaction of mtDAPDC with alternate substrates. The format is biochemical. The following applies: reaction 25 °C, 12–16 hours; OPA derivatization.
Test [2] has as its target T1, mtDAPDC. Put plainly: Inhibition assay for mtDAPDC, coupled carbon dioxide assay. The class given is biochemical.
For test [3], the target named is T1, mtDAPDC. Put plainly: Steady-state coupled carbon dioxide assay, mtDAPDC. The format is biochemical. The following applies: for kcat / Km: errors in parentheses; for Km: meso-DAP value corrected for the 50% D,L-DAP present.
Test [4] concerns yeast ODC. Conditions: read-out: concentration necessary for 50% inhibition; cited from earlier work.
The target of test [5] is S. cerevisiae ODC (Saccharomyces cerevisiae, UniProt P08432). Put plainly: biochemical.
S. cerevisiae ODC, sequence (P08432 whole entry): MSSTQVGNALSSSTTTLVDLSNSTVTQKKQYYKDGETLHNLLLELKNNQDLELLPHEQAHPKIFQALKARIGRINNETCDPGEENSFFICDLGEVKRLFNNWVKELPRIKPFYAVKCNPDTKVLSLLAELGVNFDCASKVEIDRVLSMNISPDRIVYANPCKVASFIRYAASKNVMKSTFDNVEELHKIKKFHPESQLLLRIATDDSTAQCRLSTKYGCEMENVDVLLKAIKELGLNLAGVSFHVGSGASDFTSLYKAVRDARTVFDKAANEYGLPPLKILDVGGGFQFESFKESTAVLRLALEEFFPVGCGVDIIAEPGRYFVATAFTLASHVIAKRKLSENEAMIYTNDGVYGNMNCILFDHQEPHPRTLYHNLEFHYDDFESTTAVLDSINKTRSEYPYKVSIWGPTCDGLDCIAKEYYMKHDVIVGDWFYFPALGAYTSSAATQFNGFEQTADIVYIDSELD
Where [6] appears, read: D,L-DAP held at Km (400 μM), competitive inhibition assumed (eq 1).

T1 sequence (P9WIU7 whole entry, looked up): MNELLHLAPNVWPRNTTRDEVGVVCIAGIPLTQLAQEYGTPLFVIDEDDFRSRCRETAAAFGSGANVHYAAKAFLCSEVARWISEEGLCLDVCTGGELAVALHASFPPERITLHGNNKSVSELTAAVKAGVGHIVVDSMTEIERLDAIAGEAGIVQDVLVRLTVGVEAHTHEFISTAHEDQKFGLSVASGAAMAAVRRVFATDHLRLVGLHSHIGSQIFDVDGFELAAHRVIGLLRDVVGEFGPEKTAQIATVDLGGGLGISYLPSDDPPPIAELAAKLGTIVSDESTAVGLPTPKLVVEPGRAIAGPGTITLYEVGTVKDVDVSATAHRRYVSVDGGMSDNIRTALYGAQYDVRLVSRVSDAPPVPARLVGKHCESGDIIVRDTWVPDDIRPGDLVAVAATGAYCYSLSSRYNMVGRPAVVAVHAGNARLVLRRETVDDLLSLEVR

In the case of `N[C@H](CCC[C@@H](N)C(=O)O)C(=O)O` [D,D-DAP], the “decarboxylation detected by HPLC” value in test [1] was “decarboxylated”. In addition, the “inhibition of the D,L-DAP reaction” value in test [2] (at concentrations of 6 mM (data not shown)) is “no detectable inhibition”. In test [3], the kcat was 1.8 (0.3) s^−1 and the Km amounted to 17 mM. Further, in test [3] (relative to D,L-DAP), the “kcat less than with the natural substrate” value is given as 4 fold and the “kcat/KM lower than D,L-DAP” value is given as ~ 100 fold.

As to `N[C@@H](CCC[C@H](N)C(=O)O)C(=O)O` [D,L-DAP, D,L-diaminopimelate], in test [3], the kcat was 7.1 (0.1) s^−1 and the Km worked out at 0.43 mM.

As to `NCCCC[C@@H](N)C(=O)O` [D-lysine], the “decarboxylation detected by HPLC” value in test [1] is “decarboxylated”. Besides, the Ki in test [2] (setting [6]) was 26000 µM.

As for `NC(CCCC(N)C(=O)O)C(=O)O` [L,L-DAP], in test [1], the “decarboxylation detected by HPLC” value is recorded as “no detectable amounts of their decarboxylation products; also recorded: not decarboxylated”. Moreover, in test [2] (setting [6]), the affinity corresponds to a Ki of 1600 µM. Moreover, the “binding weaker than D,L-DAP” value in test [2] (Ki compared with Km of D,L-DAP) is recorded as ~ 4 fold.

For `NCCCC[C@H](N)C(=O)O` [L-lysine], the “decarboxylation detected by HPLC” value in test [1] was “no detectable amounts of their decarboxylation products”. In test [2], this compound had a Ki of 1800 µM.

For the compound `NCCCCN` [putrescine], in test [4], the IC50 is 100 µM. Affinity in test [5] was put at a Ki of 250 ± 45 µM.

One may read the Km as the substrate concentration at which the rate is half of its maximum. By Ki is commonly meant the dissociation constant of the complex between target and ligand, obtained from inhibition or displacement. Lower therefore signals higher affinity.
